Measurements reported in patent publication EP3860599B1, “(+)-ALPHA-DIHYDROTETRABENAZINE DOSAGE REGIMEN FOR TREATING MOVEMENT DISORDERS” (Adeptio Pharmaceuticals Limited, priority 2018, dated 2020).
Read-outs that look alike come from different tables or passages of the source.

Columns and labels:
[1] = cited from earlier work; for symptoms scored with the abnormal involuntary movement scale (AIMS): KINECT 1, tardive dyskinesia patients
[2] = tested on: non-amphetamine induced rats; assay: Open field locomotor activity test in rats without amphetamine induction (Example 2, Study 3); format: in vivo; details: 1 mg/kg
Description: (§1) All animal experiments were carried out according to the National Institute of Health (NIH) guidelines for the care and use of laboratory animals, and approved by the National Animal Experiment Board, Finland. Male CD (Charles River Laboratories, Germany) at weight range of 200-250 g (165-200 g upon arrival) were used for the experiments. Animals were housed at a standard temperature (22 ± 1°C) and in a light-controlled environment (lights on from 7 am to 8 pm) with ad libitum access to food and water.
(§2) Locomotor activity of the rats was tested in open field arena. The open field test was performed during the rat light cycle and under a normal lighting evenly distributed to the test chambers. The paths of the rats were recorded by activity monitor (Med. Associates Inc.).
(§3) Dosing the vehicle, vehicle-amphetamine, (+)-α-DHTBZ or risperidone was done prior to LMA test. The rats were placed in the centre of the arena, and the path was recorded for 60 minutes.
Animals were grouped as follows: • Group 1: 10 rats treated with Vehicle • Group 2: 10 rats treated with (+)-α-DHTBZ 2.5 mg/kg • Group 3: 10 rats treated with (+)-α-DHTBZ 5 mg/kg • Group 4: 10 rats treated with risperidone 1 mg/kg

amphetamine-induced rats = assay: Open field locomotor activity test in amphetamine-induced rats (Example 2, Studies 1, 2 and 4); format: in vivo; details: 1 mg/kg
Description: as §1, §2, §3
Animals were grouped as follows: • Group 1: 10 rats treated with Vehicle (t= 0 min) and Vehicle (t= 30 min) • Group 2: 10 rats treated with Vehicle (t= 0 min) and Amphetamine (t= 30 min) • Group 3: 10 rats treated with (+)-α-DHTBZ 0.5 mg/kg (t=0 min) and Amphetamine (t= 30 min) • Group 4: 10 rats treated with (+)-α-DHTBZ 1 mg/kg (t=0 min) and Amphetamine (t= 30 min) • Group 5: 10 rats treated with (+)-α-DHTBZ 1.5 mg/kg (t=0 min) and Amphetamine (t= 30 min) • Group 6: 10 rats treated with (+)-α-DHTBZ 2 mg/kg (t=0 min) and Amphetamine (t= 30 min) • Group 7: 10 rats treated with risperidone 1 mg/kg (t=0 min) and Amphetamine (t= 30 min)
Animals were grouped as follows: • Group 1: 10 rats treated with Vehicle (t= 0 min) and Vehicle (t= 30 min) • Group 2: 10 rats treated with Vehicle (t= 0 min) and Amphetamine (t= 30 min) • Group 3: 10 rats treated with (+)-α-DHTBZ 0.1 mg/kg (t=0 min) and Amphetamine (t=30 min) • Group 4: 10 rats treated with (+)-α-DHTBZ 0.25 mg/kg (t=0 min) and Amphetamine (t=30 min) • Group 5: 10 rats treated with risperidone 1 mg/kg (t=0 min) and Amphetamine (t= 30 min)
Animals were grouped as follows: • Group 1: 10 rats treated with Vehicle (t= 0 min) and Vehicle (t= 30 min) • Group 2: 10 rats treated with Vehicle (t= 0 min) and Amphetamine (t= 30 min) • Group 3: 10 rats treated with (+)-α-DHTBZ 1 mg/kg (t=0 min) and Amphetamine (t=30 min) • Group 4: 10 rats treated with (+)-α-DHTBZ 1.5 mg/kg (t=0 min) and Amphetamine (t=30 min) • Group 5: 10 rats treated with Valbenazine 1 mg/kg (t=0 min) and Amphetamine (t=30 min) • Group 6: 10 rats treated with Valbenazine 1.5 mg/kg (t=0 min) and Amphetamine (t=30 min) • Group 7: 10 rats treated with risperidone 1 mg/kg (t=0 min) and Amphetamine (t= 30 min)

| SMILES | symptoms scored with the abnormal involuntary movement scale (AIMS) ([1]; 50 mg/day) | symptoms scored with the abnormal involuntary movement scale (AIMS) ([1]; 100 mg/day) | Abnormal Involuntary Movement Score ([1]; KINECT 3, Tardive Dyskinesia sufferers, 80mg/day) | total movement [2] | total stereotypic behaviour [2] | locomotor activity when compared to the vehicle-amphetamine group (amphetamine-induced rats; Study 1 conclusions) | stereotypic behaviour when compared to the vehicle-amphetamine group (amphetamine-induced rats; Study 1 conclusions) | locomotor activity when compared to the vehicle-amphetamine group (amphetamine-induced rats; Study 2 conclusions) | stereotypic behaviour when compared to the vehicle-amphetamine group (amphetamine-induced rats; Study 2 conclusions) |
| --- | --- | --- | --- | --- | --- | --- | --- | --- | --- |
| COc1cc2c(cc1OC)[C@H]1C[C@@H](OC(=O)[C@@H](N)C(C)C)[C@H](CC(C)C)CN1CC2 [Valbenazine, reference compound] | did not show any significant signs of improvement | some reduction of symptoms | significant improvement | – | – | – | – | – | – |
| Cc1nc2n(c(=O)c1CCN1CCC(c3noc4cc(F)ccc34)CC1)CCCC2 [risperidone, reference compound] | – | – | – | reduced total movement | reduced total stereotypic behaviour | lower locomotor activity | reduced stereotypic behaviour | lower locomotor activity | reduced stereotypic behaviour |
